Measured values: US20180230127A1 (PFIZER INC., priority 2015, published 2018)
pIC50: −log10 of the molar value. Where a name gives a salt, the structure may show the parent alone.

Target: T1, human IRAK4 kinase domain (aa 154-460) (Homo sapiens, UniProt Q9NWZ3)
T1 construct: human IRAK4 kinase domain (aa 154-460; GenBank ID AF445802)
T1 sequence (Q9NWZ3 154-460): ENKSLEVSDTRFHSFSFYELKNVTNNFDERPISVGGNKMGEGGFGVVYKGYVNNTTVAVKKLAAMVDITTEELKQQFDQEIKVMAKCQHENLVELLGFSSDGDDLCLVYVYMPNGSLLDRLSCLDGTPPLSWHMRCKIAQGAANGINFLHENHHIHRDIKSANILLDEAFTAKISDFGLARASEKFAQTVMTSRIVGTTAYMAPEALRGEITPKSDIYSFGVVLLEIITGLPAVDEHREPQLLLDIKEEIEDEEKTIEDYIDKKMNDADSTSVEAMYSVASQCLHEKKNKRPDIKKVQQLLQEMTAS
Test: IRAK4 Enzymatic DELFIA Assay
Assay type: biochemical
Settings: 0.6 mM ATP (KM); 114 pM IRAK4 kinase domain; 200 nM substrate; 5% DMSO
Description: IRAK4 Enzymatic DELFIA Assay.
This is an in vitro assay to measure IRAK4 enzymatic activity utilizing the DELFIA (Dissociation-Enhanced Lanthanide Fluorescent Immunoassay, Perkin-Elmer) platform, with the human IRAK4 kinase domain (aa 154-460) construct to characterize IRAK4 inhibitor and control compounds at 0.6 mM ATP (KM). The final amount of enzyme in the assay is 114 pM IRAK4 kinase domain, final concentration of substrate is 200 nM, and final concentration of DMSO is 5%.
The test compound was solubilized in DMSO to a stock concentration of 30 mM. The dose response plates were prepared with a 2 mM primary compound concentration, and then diluted in DMSO in a four-fold series for a total of 10 data points. Compounds were prepared as a 20-fold multiple of the final in-assay concentration
To begin the assay, 45 μL of reaction mixture containing 20 mM HEPES pH=7.5, 5 mM MgCl2, 0.0025% Brij-35, […], 228 pM phosphorylated recombinant human IRAK4 kinase domain (aa 154-460; GenBank ID AF445802) were aliquoted into Ultra-Clear Polypropylene, 96-well, U-Bottom Plates (Corning Life Sciences). 5 μL of test compound from the dose-response plate was added to the reaction mixture and incubated for 15 minutes at room temperature. Then 50 μL of 20 mM HEPES pH=7.5, 5 mM MgCl2, 0.0025% Brij-35, 600 μM ATP, and 400 nM ERM-biotinylated peptide (AGAGRDKYKTLRQIR) were added to start the reaction. The reaction was incubated for 90 minutes at room temperature and stopped by the addition of 25 μL 0.5M EDTA.
100 μL of the reaction mixture was transferred to a streptavidin coated detection plate (EvenCoat Streptavidin Coated Plates, 96-Well, R&D Systems) and incubated for 30 minutes at room temperature. The plates were washed 4 times with 100 μL per well of PBS containing 0.05% Tween-20. Plates were then incubated with 50 μL per well of antibody cocktail of Anti-pERM antibody (Cell Signaling Technology) diluted 1:5000, plus Anti-Rabbit IgG EuN1 at 0.242 μg/ml (Perkin-Elmer Life Sciences) in a solution of 10 mM MOPS pH=7.5, 150 mM NaCl, 0.05% Tween-20, 0.02% NaN3, 1% BSA, 0.1% Gelatin for 45 minutes. The plates were washed 4× with 100 μL per well of PBS containing 0.05% Tween-20. Then 100 μL per well of DELFIA Enhancement Solution were added to the plate and then read on an EnVision Model 2103 using a 340 nm excitation wavelength and a 665 nm emission detection.

SMILES | pIC50
Cc1cc(O[C@@H]2CCCN(C(=O)CC#N)C2)c2cc(OC(C)C)c(C(N)=O)cc2n1 [Example 29, (R)-4-((1-(2-cyanoacetyl)piperidin-3-yl)oxy)-6-isopropoxy-2-methylquinoline-7-carboxamide] | 6.83
CC(C)Oc1cc2c(O[C@H]3CCN(C(=O)CC#N)C[C@H]3F)nccc2cc1C(N)=O [Example 3, 1-{[(3R,4S)-1-(cyanoacetyl)-3-fluoropiperidin-4-yl]oxy}-7-(propan-2-yloxy)isoquinoline-6-carboxamide formate] | 6.51
CC(C)Oc1cc2c(O[C@@H]3CCCN(C(=O)C(C)C#N)C3)ccnc2cc1C(N)=O (mixture of isomers) [Example 34, 4-{[(3R)-1-(2-cyanopropanoyl)piperidin-3-yl]oxy}-6-(propan-2-yloxy)quinoline-7-carboxamide] | 6.03
N#CCC(=O)N1CCC[C@@H](Oc2ccnc3cc(C(N)=O)c(OC4CCC4)cc23)C1 [Example 33, (R)-4-((1-(2-cyanoacetyl)piperidin-3-yl)oxy)-6-cyclobutoxyquinoline-7-carboxamide] | 6.57
CCOc1cc2c(O[C@@H]3CCCN(C(=O)CC#N)C3)ccnc2cc1C(N)=O [Example 32, 4-{[(3R)-1-(cyanoacetyl)piperidin-3-yl]oxy}-6-ethoxyquinoline-7-carboxamide] | 7.46
CC(C)Oc1cc2c(OC3CCNC3=O)nccc2cc1C(N)=O (stereo not shown) [Example 21, 1-[(2-oxopyrrolidin-3-yl)oxy]-7-(propan-2-yloxy)isoquinoline-6-carboxamide] | 6.22
CC(C)Oc1cc2c(O[C@@H]3CCCN(C(=O)CN)C3)ccnc2cc1C(N)=O [Example 6, 4-{[(3R)-1-glycylpiperidin-3-yl]oxy}-6-(propan-2-yloxy)quinoline-7-carboxamide formate] | 6.46
CC(C)Oc1cc2c(O[C@@H]3CCCN(C(=O)[C@H](N)CC#N)C3)ccnc2cc1C(N)=O [Example 48, 4-({(3R)-1-[(2R)-2-amino-3-cyanopropanoyl]piperidin-3-yl}oxy)-6-(propan-2-yloxy)quinoline-7-carboxamide trifluoroacetate] | 6.52
CC(C)Oc1cc2c(O[C@@H]3CCCN(C(=O)CC#N)C3)nccc2cc1C(N)=O [Example 36, 1-{[(3R)-1-(cyanoacetyl)piperidin-3-yl]oxy}-7-(propan-2-yloxy)isoquinoline-6-carboxamide] | 8.30
CC(C)Oc1cc2c(O[C@@H]3CCCN(C(=O)CO)C3)ccnc2cc1C(N)=O [Example 4, 4-{[(3R)-1-(hydroxyacetyl)piperidin-3-yl]oxy}-6-(propan-2-yloxy)quinoline-7-carboxamide formate] | 7.89
CC(C)Oc1cc2c(O[C@@H]3CCCN(C(=O)CC#N)C3)ccnc2cc1C(N)=O [Example 28, 4-{[(3R)-1-(cyanoacetyl)piperidin-3-yl]oxy}-6-(propan-2-yloxy)quinoline-7-carboxamide] | 8.40
CC(C)Oc1cc2c(O[C@@H]3CCCN(C(=O)c4cnco4)C3)ccnc2cc1C(N)=O [Example 11, 4-{[(3R)-1-(1,3-oxazol-5-ylcarbonyl)piperidin-3-yl]oxy}-6-(propan-2-yloxy)quinoline-7-carboxamide formate] | 6.25
COCC(=O)N1CCC[C@@H](Oc2ccnc3cc(C(N)=O)c(OC(C)C)cc23)C1 [Example 8, 4-{[(3R)-1-(methoxyacetyl)piperidin-3-yl]oxy}-6-(propan-2-yloxy)quinoline-7-carboxamide formate] | 6.77
CC(C)Oc1cc2c(O[C@@H]3CCCNC3)ncc(Br)c2cc1C(N)=O [Example 54, 4-bromo-1-[(3R)-piperidin-3-yloxy]-7-(propan-2-yloxy)isoquinoline-6-carboxamide hydrochloride] | 6.23
CCC(=O)N1CCC[C@@H](Oc2ccnc3cc(C(N)=O)c(OC(C)C)cc23)C1 [Example 10, 4-{[(3R)-1-propanoylpiperidin-3-yl]oxy}-6-(propan-2-yloxy)quinoline-7-carboxamide formate] | 6.30
CC(C)Oc1cc2c(O[C@@H]3CCCNC3)ncc(Cl)c2cc1C(N)=O [Example 55, 4-chloro-1-[(3R)-piperidin-3-yloxy]-7-(propan-2-yloxy)isoquinoline-6-carboxamide hydrochloride] | 6.66
CC(C)Oc1cc2c(OC3CCN(C(=O)CO)CC3)nccc2cc1C(N)=O [Example 51, 1-{[1-(hydroxyacetyl)piperidin-4-yl]oxy}-7-(propan-2-yloxy)isoquinoline-6-carboxamide] | 6.80
CC(C)Oc1cc2c(OC3CCN(C(=O)CC#N)CC3)nccc2cc1C(N)=O [Example 50, 1-{[1-(cyanoacetyl)piperidin-4-yl]oxy}-7-(propan-2-yloxy)isoquinoline-6-carboxamide] | 6.29
CC(C)Oc1cc2c(O[C@@H]3C[C@@H](C)N(C(=O)CC#N)C3)ccnc2cc1C(N)=O [Example 16, 4-{[(3R,5R)-1-(cyanoacetyl)-5-methylpyrrolidin-3-yl]oxy}-6-(propan-2-yloxy)quinoline-7-carboxamide formate] | 6.96

Other lines, results leading:

pIC50 | SMILES
7.40 | CC(C)Oc1cc2c(OC3CCCNC3)cccc2cc1C(N)=O (stereo not shown) [Example 57, 3-isopropoxy-5-(piperidin-3-yloxy)-2-naphthamide hydrochloride]
5.52 | CC(C)Oc1cc2c(O[C@H]3CNCC[C@@H]3C)ccnc2cc1C(N)=O [Example 78, 4-{[(3R,4S)-4-methylpiperidin-3-yl]oxy}-6-(propan-2-yloxy)quinoline-7-carboxamide]
6.40 | CC(=O)N1CCCC(Oc2ccnc3cc(C(N)=O)c(OC(C)C)cc23)C1 (stereo not shown) [Example 43, 4-[(1-acetylpiperidin-3-yl)oxy]-6-(propan-2-yloxy)quinoline-7-carboxamide]
6.21 | CC(C)Oc1cc2c(OC3CCNC3)ccnc2cc1C(N)=O (stereo not shown) [Example 24, 6-(propan-2-yloxy)-4-(pyrrolidin-3-yloxy)quinoline-7-carboxamide]
5.64 | CC(C)COc1cc2c(O[C@@H]3CCCNC3)ccnc2cc1C(N)=O [Example 76, 6-(2-methylpropoxy)-4-[(3R)-piperidin-3-yloxy]quinoline-7-carboxamide]
7.09 | CC(C)Oc1cc2c(O[C@@H]3CCN(C(=O)CC#N)C3)ccnc2cc1C(N)=O [Example 40, 4-{[(3R)-1-(cyanoacetyl)pyrrolidin-3-yl]oxy}-6-(propan-2-yloxy)quinoline-7-carboxamide]
6.60 | CC(C)Oc1cc2c(OC3CCCN(S(C)(=O)=O)C3)ccnc2cc1C(N)=O (stereo not shown) [Example 45, 4-{[1-(methylsulfonyl)piperidin-3-yl]oxy}-6-(propan-2-yloxy)quinoline-7-carboxamide]
6.81 | CC(C)Oc1cc2c(O[C@H]3CCN(C(=O)CC#N)C3)ccnc2cc1C(N)=O [Example 39, 4-{[(3S)-1-(cyanoacetyl)pyrrolidin-3-yl]oxy}-6-(propan-2-yloxy)quinoline-7-carboxamide]
5.55 | CC(C)Oc1cc2c(O[C@H]3CNCC[C@@H]3C)ccnc2cc1C(N)=O [Example 74, 4-{[(3R,4S)-4-methylpiperidin-3-yl]oxy}-6-(propan-2-yloxy)quinoline-7-carboxamide]
6.74 | CC(C)Oc1cc2c(OC3CCNCC3)ccnc2cc1C(N)=O [Example 25, 4-(piperidin-4-yloxy)-6-(propan-2-yloxy)quinoline-7-carboxamide]
5.83 | CC(C)Oc1cc2c(O[C@H]3CCNC3)nccc2cc1C(N)=O [Example 79, 7-(propan-2-yloxy)-1-[(3S)-pyrrolidin-3-yloxy]isoquinoline-6-carboxamide]
6.82 | NC(=O)c1cc2nccc(O[C@@H]3CCCNC3)c2cc1OC1CCC1 [Example 23, 6-(cyclobutyloxy)-4-[(3R)-piperidin-3-yloxy]quinoline-7-carboxamide]
